# PubChem BioAssay (NCI)
# “And” between values parts separate entries of the source, which are not always exact repeats. Identical values can stand only once.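 Cells were grown in 96-well plates and exposed to each compound for 48 hours at five concentrations; endpoints were interpolated linearly between bracketing concentrations, or set to the highest concentration if not reached. Abbreviation: GI50, concentration required for 50% inhibition of growth. TGI marks complete inhibition of growth.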
# What was measured:
# Test in all cases: NCI tumour cell line growth inhibition, 48 h
# [1] = tested on: 786-0 renal
# [2] = tested on: A498 renal
# [3] = tested on: A549 NSCLC
# [4] = tested on: ACHN renal
# [5] = tested on: BT-549 breast
# [6] = tested on: CAKI-1 renal
# [7] = tested on: CCRF-CEM leukemia
# [8] = tested on: COLO 205 colon
# [9] = tested on: DU-145 prostate
# [10] = tested on: EKVX NSCLC
# [11] = tested on: HCC-2998 colon
# [12] = tested on: HCT-116 colon
# [13] = tested on: HCT-15 colon
# [14] = tested on: HL-60(TB) leukemia
# [15] = tested on: HOP-62 NSCLC
# [16] = tested on: HOP-92 NSCLC
# [17] = tested on: HS 578T breast
# [18] = tested on: HT29 colon
# [19] = tested on: IGROV1 ovarian
# [20] = tested on: K-562 leukemia
# [21] = tested on: KM12 colon
# [22] = tested on: LOX IMVI melanoma
# [23] = tested on: M14 melanoma
# [24] = tested on: MALME-3M melanoma
# [25] = tested on: MCF7 breast
# [26] = tested on: MDA-MB-231 breast
# [27] = tested on: MDA-MB-435
# [28] = tested on: MDA-N
# [29] = tested on: MOLT-4 leukemia
# [30] = tested on: NCI-H226 lung
# [31] = tested on: NCI-H23 lung
# [32] = tested on: NCI-H460 lung
# [33] = tested on: NCI-H522 lung
# [34] = tested on: NCI/ADR-RES ovarian
# [35] = tested on: OVCAR-3 ovarian
# [36] = tested on: OVCAR-4 ovarian
# [37] = tested on: OVCAR-5 ovarian
# [38] = tested on: OVCAR-8 ovarian
# [39] = tested on: PC-3 prostate
# [40] = tested on: RPMI-8226 leukemia
# [41] = tested on: RXF 393 renal
# [42] = tested on: SF-268 CNS
# [43] = tested on: SF-295 CNS
# [44] = tested on: SF-539 CNS
# [45] = tested on: SK-MEL-2 melanoma
# [46] = tested on: SK-MEL-28 melanoma
# [47] = tested on: SK-MEL-5 melanoma
# [48] = tested on: SK-OV-3 ovarian
# [49] = tested on: SN12C renal
# [50] = tested on: SNB-19 CNS
# [51] = tested on: SNB-75 CNS
# [52] = tested on: SR leukemia
# [53] = tested on: SW-620 colon
# [54] = tested on: T-47D breast
# [55] = tested on: TK-10 renal
# [56] = tested on: U251 CNS
# [57] = tested on: UACC-257 melanoma
# [58] = tested on: UACC-62 melanoma
# [59] = tested on: UO-31 renal
smiles,measurement,setting,value
COc1c(Cl)c(=O)oc2ccc(Cl)cc12,TGI,[1],> 100 µM
same,TGI,[2],> 100 µM
same,TGI,[3],> 100 µM
same,TGI,[4],> 100 µM
same,TGI,[5],> 100 µM
same,TGI,[6],> 100 µM
same,TGI,[7],> 100 µM
same,TGI,[8],> 100 µM
same,TGI,[9],> 100 µM
same,TGI,[10],> 100 µM
same,TGI,[11],> 100 µM
same,TGI,[12],> 100 µM
same,TGI,[13],> 100 µM
same,TGI,[14],> 100 µM
same,TGI,[15],> 100 µM
same,TGI,[16],> 100 µM
same,TGI,[17],> 100 µM
same,TGI,[18],> 100 µM
same,TGI,[19],> 100 µM
same,TGI,[20],> 100 µM
same,TGI,[21],> 100 µM
same,TGI,[22],> 100 µM
same,TGI,[23],> 100 µM
same,TGI,[24],> 100 µM
same,TGI,[25],> 100 µM
same,TGI,[26],> 100 µM
same,TGI,[27],> 100 µM
same,TGI,[28],> 100 µM
same,TGI,[29],> 100 µM
same,TGI,[30],> 100 µM
same,TGI,[31],> 100 µM
same,TGI,[32],> 100 µM
same,TGI,[33],> 100 µM
same,TGI,[34],> 100 µM
same,TGI,[35],> 100 µM
same,TGI,[36],> 100 µM
same,TGI,[37],> 100 µM
same,TGI,[38],> 100 µM
same,TGI,[39],> 100 µM
same,TGI,[40],> 100 µM
same,TGI,[41],> 100 µM
same,TGI,[42],> 100 µM
same,TGI,[43],> 100 µM
same,TGI,[44],> 100 µM
same,TGI,[45],> 100 µM
same,TGI,[46],> 100 µM
same,TGI,[47],> 100 µM
same,TGI,[48],> 100 µM
same,TGI,[49],> 100 µM
same,TGI,[50],> 100 µM
same,TGI,[51],> 100 µM
same,TGI,[52],> 100 µM
same,TGI,[53],> 100 µM
same,TGI,[54],> 100 µM
same,TGI,[55],> 100 µM
same,TGI,[56],> 100 µM
same,TGI,[57],> 100 µM
same,TGI,[58],> 100 µM
same,TGI,[59],> 100 µM
O=C(O)/C=C(/C(=O)O)C12CCN3CC4=CCOC5CC(=O)NC1C5C4CC32 (stereo unspecified),TGI,[1],> 100 µM
same,TGI,[2],> 100 µM
same,TGI,[3],> 100 µM
same,TGI,[4],> 100 µM
same,TGI,[5],> 100 µM
same,TGI,[6],> 100 µM
same,TGI,[7],> 100 µM
same,TGI,[8],> 100 µM
same,TGI,[9],> 100 µM
same,TGI,[10],> 100 µM
same,TGI,[12],> 100 µM
same,TGI,[13],> 100 µM
same,TGI,[14],> 100 µM
same,TGI,[15],> 100 µM
same,TGI,[16],> 100 µM
same,TGI,[17],> 100 µM
same,TGI,[18],> 100 µM
same,TGI,[19],> 100 µM
same,TGI,[20],> 100 µM
same,TGI,[21],> 100 µM
same,TGI,[22],> 100 µM
same,TGI,[23],> 100 µM
same,TGI,[24],> 100 µM
same,TGI,[25],> 100 µM
same,TGI,[26],> 100 µM
same,TGI,[27],> 100 µM
same,TGI,[28],> 100 µM
same,TGI,[29],> 100 µM
same,TGI,[30],> 100 µM
same,TGI,[31],> 100 µM
same,TGI,[32],> 100 µM
same,TGI,[33],> 100 µM
same,TGI,[34],> 100 µM
same,TGI,[35],> 100 µM
same,TGI,[36],> 100 µM
same,TGI,[37],> 100 µM
same,TGI,[38],> 100 µM
same,TGI,[39],> 100 µM
same,TGI,[40],> 100 µM
same,TGI,[41],> 100 µM
same,TGI,[42],> 100 µM
same,TGI,[43],> 100 µM
same,TGI,[44],> 100 µM
same,TGI,[45],> 100 µM
same,TGI,[46],> 100 µM
same,TGI,[47],> 100 µM
same,TGI,[48],> 100 µM
same,TGI,[49],> 100 µM
same,TGI,[50],> 100 µM
same,TGI,[51],> 100 µM
same,TGI,[52],> 100 µM
same,TGI,[53],> 100 µM
same,TGI,[54],> 100 µM
same,TGI,[55],> 100 µM
same,TGI,[56],> 100 µM
same,TGI,[57],> 100 µM
same,TGI,[58],> 100 µM
same,TGI,[59],> 100 µM
CN(C)CCSC1=Nc2ccc(Cl)cc2C(c2ccccc2Cl)=NC1,GI50,[1],14.3 µM and > 100 µM
same,TGI,[1],31.5 µM and > 100 µM
same,GI50,[2],18.7 µM and > 100 µM
same,TGI,[2],34.2 µM and > 100 µM
same,GI50,[3],13.8 µM and 88.8 µM
same,TGI,[3],31.7 µM and > 100 µM
same,GI50,[4],14 µM and > 100 µM
same,TGI,[4],26.9 µM and > 100 µM
same,TGI,[5],> 100 µM
same,GI50,[6],15.1 µM and 79.5 µM
same,TGI,[6],31.5 µM and > 100 µM
same,GI50,[7],21.5 µM and 46.2 µM
same,TGI,[7],82.1 µM and > 100 µM
same,GI50,[8],14 µM and 74.2 µM
same,TGI,[8],27.3 µM and > 100 µM
same,GI50,[9],14.4 µM and 60.2 µM
same,TGI,[9],30.5 µM and > 100 µM
same,GI50,[10],14.8 µM and 43.4 µM
same,TGI,[10],29.9 µM and > 100 µM
same,GI50,[11],13.4 µM and > 100 µM
same,TGI,[11],30.3 µM and > 100 µM
same,GI50,[12],13.8 µM and 58.4 µM
same,TGI,[12],31.1 µM and > 100 µM
same,GI50,[13],12 µM and 37.8 µM
same,TGI,[13],25.2 µM and > 100 µM
same,TGI,[14],66.5 µM and 80.4 µM
same,GI50,[15],15.8 µM and > 100 µM
same,TGI,[15],32.1 µM and > 100 µM
same,GI50,[16],12.3 µM and 72.3 µM
same,TGI,[16],31.7 µM and > 100 µM
same,TGI,[17],35.7 µM and > 100 µM
same,GI50,[18],15 µM and 40.6 µM
same,TGI,[18],35.4 µM and > 100 µM
same,TGI,[19],> 100 µM
same,TGI,[20],> 100 µM
same,GI50,[21],16.5 µM and 44.1 µM
same,TGI,[21],34.3 µM and > 100 µM
same,GI50,[22],15.6 µM and 69.7 µM
same,TGI,[22],30.9 µM and > 100 µM
same,GI50,[23],15.8 µM and > 100 µM
same,TGI,[23],36.4 µM and > 100 µM
same,GI50,[24],13.5 µM and > 100 µM
same,TGI,[24],28.3 µM and > 100 µM
same,GI50,[25],12 µM and 67.4 µM
same,TGI,[25],25.5 µM and > 100 µM
same,GI50,[26],10.7 µM and > 100 µM
same,TGI,[26],22.8 µM and > 100 µM
same,TGI,[27],28.4 µM and 38.7 µM
same,GI50,[28],11.8 µM and 25.1 µM
same,TGI,[28],25.8 µM and 89.1 µM
same,TGI,[29],> 100 µM and 94.3 µM
same,GI50,[31],15 µM and 97.1 µM
same,TGI,[31],30.2 µM and > 100 µM
same,GI50,[32],14.9 µM and 68.1 µM
same,TGI,[32],30.7 µM and > 100 µM
same,GI50,[33],6.68 µM and 52.2 µM
same,TGI,[33],21.6 µM and > 100 µM
same,GI50,[34],15 µM and 42.4 µM
same,TGI,[34],37.1 µM and > 100 µM
same,GI50,[35],17.3 µM and > 100 µM
same,TGI,[35],31.8 µM and > 100 µM
same,TGI,[36],> 100 µM
same,GI50,[37],18.6 µM and > 100 µM
same,TGI,[37],34.4 µM and > 100 µM
same,GI50,[38],6.63 µM and 43.5 µM
same,TGI,[38],20.2 µM and > 100 µM
same,GI50,[39],15.4 µM and 57.7 µM
same,TGI,[39],33.4 µM and > 100 µM
same,GI50,[40],16.2 µM and 49.4 µM
same,TGI,[40],40.6 µM and > 100 µM
same,TGI,[41],15.9 µM and > 100 µM
same,GI50,[42],13.9 µM and 99.4 µM
same,TGI,[42],28.2 µM and > 100 µM
same,GI50,[43],16 µM and 68.7 µM
same,TGI,[43],31.5 µM and > 100 µM
same,GI50,[44],17.3 µM and > 100 µM
same,TGI,[44],31.6 µM and > 100 µM
same,TGI,[45],> 100 µM
same,GI50,[46],19.4 µM and > 100 µM
same,TGI,[46],34.1 µM and > 100 µM
same,GI50,[47],15 µM and 43.3 µM
same,TGI,[47],28.7 µM and > 100 µM
same,GI50,[48],16.9 µM and 63.1 µM
same,TGI,[48],33.6 µM and > 100 µM
same,GI50,[49],13.5 µM and > 100 µM
same,TGI,[49],26.5 µM and > 100 µM
same,GI50,[50],17.1 µM and > 100 µM
same,TGI,[50],31.1 µM and > 100 µM
same,TGI,[51],33.1 µM and > 100 µM
same,GI50,[52],6.68 µM and 42 µM
same,TGI,[52],> 100 µM
same,GI50,[53],16.6 µM and 33.5 µM
same,TGI,[53],34 µM and > 100 µM
same,GI50,[54],19.2 µM and 78.3 µM
same,TGI,[54],47.3 µM and > 100 µM
same,GI50,[55],17.5 µM and 63.4 µM
same,TGI,[55],33.1 µM and > 100 µM
same,GI50,[56],13.6 µM and 89.5 µM
same,TGI,[56],28.1 µM and > 100 µM
same,GI50,[57],13.4 µM and > 100 µM
same,TGI,[57],26.3 µM and > 100 µM
same,TGI,[58],19.1 µM and > 100 µM
same,GI50,[59],9.23 µM and 53.4 µM
same,TGI,[59],21.8 µM and > 100 µM
